Results on 15 compounds are retold here after patent publication US5602161A, “Tetrazolylphenyl pivalate derivatives and medicinal composition containing the same as effective component” (Wakamoto Pharmaceutical Co., Ltd., priority 1994, dated 1997).

Series [1] addresses T1, human sputum elastase (Homo sapiens, UniProt P08246).
T1 sequence (P08246 30-247 limits assumed): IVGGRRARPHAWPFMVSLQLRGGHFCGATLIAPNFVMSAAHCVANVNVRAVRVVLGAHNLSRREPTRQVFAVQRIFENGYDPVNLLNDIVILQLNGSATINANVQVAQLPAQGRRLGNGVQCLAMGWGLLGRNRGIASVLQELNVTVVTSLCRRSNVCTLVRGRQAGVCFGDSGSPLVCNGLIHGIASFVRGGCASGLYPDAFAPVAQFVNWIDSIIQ
Nature of the series: Inhibitory effect on elastase (human sputum), spectrophotometric assay with MeOSuc-Ala-Ala-Pro-Val-pNA. In kind it is biochemical. The conditions noted are these: S: human sputum elastase; pH 8.0, 37° C.; read-out: IC50.

Series [2] in a line: Cytotoxicity test (MTT, three days). The series is classed as cell-based. The following applies: mouse, l1210 cells, read-out: Survival rate; for viability at 72 h, 1 µM: final concentration 1 μM; for viability at 72 h, 5 µM: final concentration 5 μM; for viability at 72 h, 10 µM: final concentration 10 μM. Here is the method: L1210 (lymphocytic leukemia, mouse) cells in a logarithmic growth phase were collected and washed twice with HBSS (Hanks' balanced salt solution). The L1210 cells were resuspended at 5.0×10^4 cells/ml in RPMI 1640 medium containing 10% heat-inactivated fetal bovine serum. The cell suspension was dispensed in 100 μl aliquots into 96 well multi-plate. Each of compounds to be tested was dissolved in dimethylsulfoxide at a concentration of 10 mM. The solutions were stepwise diluted with RPMI 1640 solution containing 10% heat-inactivated fetal bovine serum. Each of the diluted samples was dispensed in an amount of 10 μl well in the 96 well multi-plate containing L1210 cells and incubated for three days at 37° C. in humidified 5% CO2 -air mixture. To each of the wells, 10 μl of MTT (3-(4,5-dimethylthiazol-2-yl)-2,5-diphenyltetrazolium bromide)(5 mg/ml in phosphate buffer free of Ca^2+ and Mg^2+) was added. Cultivation was continued for additional five hours at 37° C. in humidified 5% CO2 -air mixture. To each of the wells, 100 μl of 20% SDS (sodium dodecyl sulfate) in 0.01N HCl was added to solubilize the MTT formazan.
Absorbance was measured at 630 nm as a reference wavelength and 570 nm as a measuring wavelength using Corona Electric MTP22 Microplate Photometer. The measurement was conducted three times for each of the samples to obtain an average value and a standard deviation. Survival rate was calculated by the following equation:
Survival rate (5)=[(absorbance of test sample)/(absobance of […]

Each structure is given as a SMILES string. Structures can show the parent of a compound that is named as a salt.

Usually IC50 stands for the concentration at which inhibition is half-maximal. On to `CC(C)c1ccc(-n2nnc(-c3ccc(OC(=O)C(C)(C)C)cc3)n2)cc1` [Example 6, 4-[2-(4-Isopropylphenyl)tetrazol-5-yl)phenyl pivalate], for which the IC50 in series [1] turned out to be 4400 nM. For the same compound, in series [2], the viability at 72 h, 1 µM was 94.9%; the viability at 72 h, 5 µM is 88.7%; the viability at 72 h, 10 µM turned out to be 70.1%.

`CC(C)(C)C(=O)Oc1ccc(-c2nnn(Cc3ccccc3)n2)cc1` [Example 9, 4-(2-Benzyltetrazol-5-yl)phenyl pivalate]: in series [1], the IC50 stood at 170 nM. Further, in series [2], the viability at 72 h, 1 µM is 93.9%; the viability at 72 h, 5 µM was determined as 100%; the viability at 72 h, 10 µM came out at 98.1%.

For `COc1ccc(COCCCCn2nnc(-c3ccccc3OC(=O)C(C)(C)C)n2)cc1` [Example 22, 2-[2-[4-(4-Methoxybenzyloxy)butyl]tetrazol-5-yl]phenyl pivalate], the IC50 in series [1] stood at 4300 nM. Besides, in series [2], the viability at 72 h, 1 µM is 102%; the viability at 72 h, 5 µM was found to be 86.4%; the viability at 72 h, 10 µM was 86.7%.

As to `CC(C)Cn1nnc(-c2ccc(OC(=O)C(C)(C)C)cc2)n1` [Example 37, 4-[2-(2-Methylpropyl)tetrazol-5-yl]phenyl pivalate], the IC50 in series [1] was found to be 180 nM. Also, in series [2], the viability at 72 h, 1 µM is 92.5%; the viability at 72 h, 5 µM is 106%; the viability at 72 h, 10 µM was 95.5%.

On to `CC(C)(C)C(=O)Oc1ccc(-c2nnn(CC(=O)O)n2)cc1` [Example 80, 5-(4-Pivaloyloxyphenyl)-2-tetrazoleacetic acid], for which, in series [2], the viability at 72 h, 1 µM came out at 93.9%; the viability at 72 h, 5 µM is 98.1%; the viability at 72 h, 10 µM turned out to be 109%.

As to `CC(C)(C)C(=O)Oc1ccc(-c2nnn(Cc3cccc(CCCN)c3)n2)cc1` [Example 89, 4-[2-[3-(3-Aminopropyl)benzyl]tetrazol-5-yl]phenyl pivalate Hydrochloride], in series [1], the IC50 came out at 170 nM.

In the case of `CNc1ccc(Cn2nnc(-c3ccc(OC(=O)C(C)(C)C)cc3)n2)cc1` [Example 90, 4-[2-(4-Methylaminobenzyl)tetrazol-5-yl]phenyl pivalate], the IC50 in series [1] turned out to be 110 nM.

On to `CNc1ccc(Cn2nnnc2-c2ccc(OC(=O)C(C)(C)C)cc2)cc1` [Example 91, 4-[1-(4-Methylaminobenzyl)tetrazol-5-yl]phenyl pivalate], for which the IC50 in series [1] was 580 nM.

In the case of `CC(C)(C)C(=O)Oc1ccc(-c2nnn(CCN)n2)cc1` [Example 92, 4-[2-(2-Aminoethyl)tetrazol-5-yl]phenyl pivalate Hydrochloride], the IC50 in series [1] is 1600 nM.

`CC(C)c1ccc(Cn2nnnc2-c2ccc(OC(=O)C(C)(C)C)cc2)cc1` [Example 96, 4-[1-(4-Isopropylbenzyl)tetrazol-5-yl]phenyl pivalate]: the IC50 in series [1] came to 140 nM.

Turning to `CCN(C)c1ccc(Cn2nnc(-c3ccc(OC(=O)C(C)(C)C)cc3)n2)cc1` [Example 97, 4-[2-[4-(Ethylmethylamino)benzyl]tetrazol-5-yl]phenyl pivalate], in series [1], the IC50 was found to be 150 nM.

Regarding `CCCN(C)c1ccc(Cn2nnc(-c3ccc(OC(=O)C(C)(C)C)cc3)n2)cc1` [Example 98, 4-[2-[4-(Methylpropylamino)benzyl]tetrazol-5-yl]phenyl pivalate], the IC50 in series [1] came to 150 nM.

As for `CN(C)c1ccc(Cn2nnnc2-c2ccc(OC(=O)C(C)(C)C)cc2)cc1` [Example 99, 4-[1-[4-(Dimethylamino)benzyl]tetrazol-5-yl]phenyl pivalate], in series [1], the IC50 came to 340 nM.

With `CN(C)c1cccc(Cn2nnc(-c3ccc(OC(=O)C(C)(C)C)cc3)n2)c1` [Example 100, 4-[2-[3-(Dimethylamino)benzyl]tetrazol-5-yl]phenyl pivalate], the IC50 in series [1] is 250 nM.

Consider `CN(C)c1ccccc1Cn1nnc(-c2ccc(OC(=O)C(C)(C)C)cc2)n1` [Example 101, 4-[2-[2-(Dimethylamino)benzyl]tetrazol-5-yl]phenyl pivalate], for which the IC50 in series [1] came out at 380 nM.
